# Measurements reported in US6362369B1, “Phthalic acid diamide derivatives fluorine-containing aniline compounds as starting material, agricultural and horticultural insecticides, and a method for application of the insecticides” (Nihon Nohyaku Co., Ltd., priority 1997, dated 2002).
# What was measured:
# Type in all cases: in vivo
# [1] = system: diamondback moth (Plutella xylostella); test: Insecticidal effect on diamondback moth (Test Example 1); settings: for Insecticidal effect on diamondback moth (Test Example 1), judged grade: mortality judged according to the criterion shown in Test Example 1; for Insecticidal effect, Test Example 1 / Insecticidal effect (Test Example 1), judged from mortality: diamondback moth; for Insecticidal effect (Test Example 1), judged from mortality: judged by the criterion of Test Example 1
# Outline: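 Oviposition by adults on Chinese cabbage seedling; immersion; air-dry; 25° C room. Count of hatched larvae at day 6 post-immersion → mortality → effect graded by criterion. Triplicate, 10 insects/group.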
# [2] = system: rice leafroller (Cnaphalocrocis medinalis); test: Insecticidal effect on rice leafroller (Test Example 3); settings: 500 ppm, 25° C., humidity 70%; for Insecticidal effect on rice leafroller (Test Example 3), judged grade / Insecticidal effect (Test Example 3), judged from mortality: rice lamina dip; for Insecticidal effect on rice leafroller (Test Example 3), judged grade: third-instar larvae; for Insecticidal effect on rice leafroller (Test Example 3), judged grade / Insecticidal effect, Test Example 3: four days after inoculation; for Insecticidal effect, Test Example 3: rice lamina immersed; for Insecticidal effect (Test Example 3), judged from mortality: 4 days after inoculation
# Outline: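 Insecticidal effect is judged by a predefined criterion from dead/alive counts four days after infesting air-dried lamina with third-instar larvae, kept on moistened filter paper at 25° C, 70% humidity.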
# [3] = system: common cutworm (Spodoptera Litura); test: Insecticidal effect on common cutworm (Test Example 2); settings: 500 ppm, 25° C.; for Insecticidal effect on common cutworm (Test Example 2), judged grade / Insecticidal effect (Test Example 2), judged from mortality: cabbage leaf dip; for Insecticidal effect on common cutworm (Test Example 2), judged grade: second-instar larvae; for Insecticidal effect on common cutworm (Test Example 2), judged grade / Insecticidal effect, Test Example 2: eight days after inoculation; for Insecticidal effect, Test Example 2: cabbage leaf immersed; for Insecticidal effect (Test Example 2), judged from mortality: 8 days after inoculation
# Outline: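 Air-dried treated material was placed in a closed dish with second-instar larvae and held at 25° C. Dead and live insects were counted eight days after inoculation, and mortality was calculated and scored against a fixed insecticidal-effect criterion. Three replicate groups of 10 insects were used.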
# [4] = mortality judged by criterion of Test Example 1
# [5] = rice leafroller third-instar larvae
# [6] = common cutworm second-instar larvae
# [7] = third-instar larvae of rice leafroller
# [8] = second-instar larvae of common cutworm
# [9] = judged by the mortality criterion of Test Example 1
compound,measurement,setting,value
CC(C)NC(=O)c1c(C(=O)Nc2ccc(OC(F)(F)F)cc2Br)cccc1[N+](=O)[O-] [compound 705],"Insecticidal effect on diamondback moth (Test Example 1), judged grade",[1],A (100)
same,"Insecticidal effect on rice leafroller (Test Example 3), judged grade",[2],A (100)
same,"Insecticidal effect on common cutworm (Test Example 2), judged grade",[3],D (79-50)
Cc1c(NC(=O)c2cccc(F)c2C(=O)NC(C)C)cccc1OC(F)F [compound 499],"Insecticidal effect on diamondback moth (Test Example 1), judged grade",[1],A (100)
same,"Insecticidal effect on rice leafroller (Test Example 3), judged grade",[2],A (100)
same,"Insecticidal effect on common cutworm (Test Example 2), judged grade",[3],A (100)
Cc1cc(C(F)(F)C(F)(F)F)ccc1NC(=O)c1c(I)cccc1C(=O)NC(C)(C)C [compound 943],"Insecticidal effect, Test Example 1",[1]; [4],A (100)
same,"Insecticidal effect, Test Example 3",[2]; [5],A (100)
same,"Insecticidal effect, Test Example 2",[3]; [6],C (89-80)
CCNC(=O)c1c(I)cccc1C(=O)Nc1ccc(C(F)(F)C(F)(F)F)cc1F [compound 1502],"Insecticidal effect (Test Example 1), judged from mortality",[1],A (100)
same,"Insecticidal effect (Test Example 3), judged from mortality",[2]; [7],A (100)
same,"Insecticidal effect (Test Example 2), judged from mortality",[3]; [8],A (100)
Cc1cc(OC(F)(F)C(F)(F)Br)ccc1NC(=O)c1c(Cl)cccc1C(=O)NC(C)C [compound 229],"Insecticidal effect, Test Example 1",[1]; [9],A (100)
same,"Insecticidal effect, Test Example 3",[2]; [7],A (100)
same,"Insecticidal effect, Test Example 2",[3]; [8],D (79-50)
Cc1ccc(Cl)cc1NC(=O)c1cccc([N+](=O)[O-])c1C(N)=O [compound 1],"Insecticidal effect, Test Example 1",[1]; [9],D (79-50)
same,"Insecticidal effect, Test Example 3",[2]; [7],A (100)
same,"Insecticidal effect, Test Example 2",[3]; [8],D (79-50)
CC(C)NC(=O)c1c(C(=O)Nc2ccc3c(c2)OC(F)C(F)(F)O3)cccc1[N+](=O)[O-] (stereo not drawn) [compound 1146],"Insecticidal effect, Test Example 1",[1]; [4],A (100)
same,"Insecticidal effect, Test Example 3",[2]; [5],A (100)
same,"Insecticidal effect, Test Example 2",[3]; [6],C (89-80)
CC(C)(C)NC(=O)c1c(I)cccc1C(=O)Nc1ccc2c(c1)OC(F)(F)O2 [compound 1105],"Insecticidal effect, Test Example 1",[1]; [4],A (100)
same,"Insecticidal effect, Test Example 3",[2]; [5],A (100)
same,"Insecticidal effect, Test Example 2",[3]; [6],A (100)
CC(C)NC(=O)c1cccc(Cl)c1C(=O)Nc1ccc(C(F)(F)C(F)(F)F)cc1 [compound 894],"Insecticidal effect on diamondback moth (Test Example 1), judged grade",[1],A (100)
same,"Insecticidal effect on rice leafroller (Test Example 3), judged grade",[2],A (100)
same,"Insecticidal effect on common cutworm (Test Example 2), judged grade",[3],A (100)
CC(C)NC(=O)c1c(I)cccc1C(=O)Nc1cc2c(cc1Cl)OC(F)(F)O2 [compound 1622],"Insecticidal effect (Test Example 1), judged from mortality",[1],A (100)
same,"Insecticidal effect (Test Example 3), judged from mortality",[2]; [7],A (100)
same,"Insecticidal effect (Test Example 2), judged from mortality",[3]; [8],A (100)
CCN(CC)C(=O)c1c(C(=O)Nc2ccc(C(F)(F)C(F)(F)F)cc2C)cccc1[N+](=O)[O-] [compound 1550],"Insecticidal effect (Test Example 1), judged from mortality",[1],A (100)
same,"Insecticidal effect (Test Example 3), judged from mortality",[2]; [7],A (100)
same,"Insecticidal effect (Test Example 2), judged from mortality",[3]; [8],A (100)
CC(C)NC(=O)c1c(Cl)cccc1C(=O)Nc1cccc(Cl)c1Cl [compound 111],"Insecticidal effect, Test Example 1",[1]; [9],A (100)
same,"Insecticidal effect, Test Example 3",[2]; [7],B (99-90)
same,"Insecticidal effect, Test Example 2",[3]; [8],C (89-80)
CCN(CC)C(=O)c1c(I)cccc1C(=O)Nc1ccc(OC(F)(F)C(F)F)cc1C [compound 1556],"Insecticidal effect (Test Example 1), judged from mortality",[1],A (100)
same,"Insecticidal effect (Test Example 3), judged from mortality",[2]; [7],A (100)
same,"Insecticidal effect (Test Example 2), judged from mortality",[3]; [8],A (100)
CCCN(CCC)C(=O)c1c(I)cccc1C(=O)Nc1ccc(OC(F)(F)C(F)F)cc1C [compound 1158],"Insecticidal effect, Test Example 1",[1]; [4],A (100)
same,"Insecticidal effect, Test Example 3",[2]; [5],A (100)
same,"Insecticidal effect, Test Example 2",[3]; [6],D (79-50)
COc1cc(C(F)(C(F)(F)F)C(F)(F)F)ccc1NC(=O)c1cccc(I)c1C(=O)NC(C)C [compound 1715],"Insecticidal effect (Test Example 1), judged from mortality",[1],A (100)
same,"Insecticidal effect (Test Example 3), judged from mortality",[2]; [7],A (100)
same,"Insecticidal effect (Test Example 2), judged from mortality",[3]; [8],A (100)
Cc1cc(OC(F)(F)C(F)(Cl)Cl)ccc1NC(=O)c1cccc(F)c1C(=O)NC(C)C [compound 502],"Insecticidal effect on diamondback moth (Test Example 1), judged grade",[1],A (100)
same,"Insecticidal effect on rice leafroller (Test Example 3), judged grade",[2],A (100)
same,"Insecticidal effect on common cutworm (Test Example 2), judged grade",[3],A (100)
